Measurements published in the kinase profiling compilation of Christmann-Franck et al. (2016).

Key:
Test in all cases: KINOMEscan competition binding
Details in all cases: compound 10.0 µM
TAOK3 (human) = TAOK3 (human) (UniProt Q9H2K8)
IKBKB (human) = IKBKB (human) (UniProt O14920)
MAP2K7 (human) = MAP2K7 (human) (UniProt O14733)
STK32B (human) = STK32B (human) (UniProt Q9NY57)
SGK1 (human) = SGK1 (human) (UniProt O00141)
CASK (human) = CASK (human) (UniProt O14936)
ROCK1 (human) = ROCK1 (human) (UniProt Q13464)
PAK3 (human) = PAK3 (human) (UniProt O75914)
WNK3 (human) = WNK3 (human) (UniProt Q9BYP7)
LIMK2 (human) = LIMK2 (human) (UniProt P53671)
LATS2 (human) = LATS2 (human) (UniProt Q9NRM7)
RIPK4 (human) = RIPK4 (human) (UniProt P57078)
PIP4K2B (human) = PIP4K2B (human) (UniProt P78356)
PIP4K2B (human), sequence (P78356 whole entry, looked up): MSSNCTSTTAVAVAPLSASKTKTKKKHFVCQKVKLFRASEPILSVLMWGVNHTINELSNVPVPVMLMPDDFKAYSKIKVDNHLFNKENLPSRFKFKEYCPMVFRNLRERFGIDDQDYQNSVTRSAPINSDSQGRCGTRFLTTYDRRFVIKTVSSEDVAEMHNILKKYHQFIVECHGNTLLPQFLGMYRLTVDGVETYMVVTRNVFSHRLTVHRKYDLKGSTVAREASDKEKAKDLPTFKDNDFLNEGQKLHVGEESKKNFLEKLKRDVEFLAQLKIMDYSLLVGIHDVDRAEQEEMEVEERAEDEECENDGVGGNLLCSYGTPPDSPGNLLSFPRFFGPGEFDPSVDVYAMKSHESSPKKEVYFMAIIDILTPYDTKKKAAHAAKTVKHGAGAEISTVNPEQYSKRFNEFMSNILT

PRKD3 (human) = PRKD3 (human) (UniProt O94806)
PAK6 (human) = PAK6 (human) (UniProt Q9NQU5)
ROCK2 (human) = ROCK2 (human) (UniProt O75116)
PTK6 (human) = PTK6 (human) (UniProt Q13882)
MARK4 (human) = MARK4 (human) (UniProt Q96L34)
SRPK2 (human) = SRPK2 (human) (UniProt P78362)
SRPK2 (human), sequence (P78362 whole entry, looked up): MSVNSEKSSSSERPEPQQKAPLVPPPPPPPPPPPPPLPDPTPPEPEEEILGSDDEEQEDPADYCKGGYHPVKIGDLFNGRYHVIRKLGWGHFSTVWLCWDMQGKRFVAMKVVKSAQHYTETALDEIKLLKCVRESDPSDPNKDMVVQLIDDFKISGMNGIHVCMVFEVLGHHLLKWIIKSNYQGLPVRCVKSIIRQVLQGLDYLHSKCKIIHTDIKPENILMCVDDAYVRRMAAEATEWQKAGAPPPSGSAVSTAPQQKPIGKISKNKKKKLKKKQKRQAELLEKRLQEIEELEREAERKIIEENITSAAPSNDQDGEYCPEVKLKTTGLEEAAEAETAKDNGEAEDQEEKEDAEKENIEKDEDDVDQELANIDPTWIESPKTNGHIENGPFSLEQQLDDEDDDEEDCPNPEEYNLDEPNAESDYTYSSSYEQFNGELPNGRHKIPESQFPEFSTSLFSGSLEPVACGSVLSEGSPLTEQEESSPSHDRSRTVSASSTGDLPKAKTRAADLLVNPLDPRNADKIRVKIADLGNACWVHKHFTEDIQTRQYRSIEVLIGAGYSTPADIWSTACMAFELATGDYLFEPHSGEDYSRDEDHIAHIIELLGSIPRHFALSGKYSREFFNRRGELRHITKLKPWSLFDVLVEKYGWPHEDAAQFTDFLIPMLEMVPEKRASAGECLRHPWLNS

BLK (human) = BLK (human) (UniProt P51451)
MELK (human) = MELK (human) (UniProt Q14680)
CLK3 (human) = CLK3 (human) (UniProt P49761)
CLK3 (human), sequence (P49761 whole entry, looked up): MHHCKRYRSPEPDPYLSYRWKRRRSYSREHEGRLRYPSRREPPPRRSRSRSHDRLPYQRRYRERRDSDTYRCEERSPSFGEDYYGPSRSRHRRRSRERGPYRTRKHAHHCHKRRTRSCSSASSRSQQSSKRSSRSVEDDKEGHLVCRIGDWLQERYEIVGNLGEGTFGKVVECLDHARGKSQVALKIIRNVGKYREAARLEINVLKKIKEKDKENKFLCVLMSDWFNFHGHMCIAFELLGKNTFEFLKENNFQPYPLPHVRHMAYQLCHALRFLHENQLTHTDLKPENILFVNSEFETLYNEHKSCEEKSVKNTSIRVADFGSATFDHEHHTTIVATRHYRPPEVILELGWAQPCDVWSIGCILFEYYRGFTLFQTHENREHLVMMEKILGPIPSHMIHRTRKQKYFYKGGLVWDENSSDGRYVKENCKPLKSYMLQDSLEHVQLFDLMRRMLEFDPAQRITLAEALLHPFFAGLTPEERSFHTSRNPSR

CDKL1 (human) = CDKL1 (human) (UniProt Q00532)
PKMYT1 (human) = PKMYT1 (human) (UniProt Q99640)
ABL1 (human) = ABL1 (human) (UniProt P00519)
BUB1 (human) = BUB1 (human) (UniProt O43683)
CaMK1 (human) = CaMK1 (human) (UniProt Q14012)
RPS6KA2 KD2 (human) = RPS6KA2 KD2 (human) (UniProt Q15349)
PIK3CG (human) = PIK3CG (human) (UniProt P48736)
MST4 (human) = MST4 (human) (UniProt Q9P289)
BMPR1B (human) = BMPR1B (human) (UniProt O00238)
[1] = molecular target: JAK2 JH1 catalytic (human) (UniProt O60674)
FRK (human) = FRK (human) (UniProt P42685)
FRK (human), sequence (P42685 whole entry, looked up): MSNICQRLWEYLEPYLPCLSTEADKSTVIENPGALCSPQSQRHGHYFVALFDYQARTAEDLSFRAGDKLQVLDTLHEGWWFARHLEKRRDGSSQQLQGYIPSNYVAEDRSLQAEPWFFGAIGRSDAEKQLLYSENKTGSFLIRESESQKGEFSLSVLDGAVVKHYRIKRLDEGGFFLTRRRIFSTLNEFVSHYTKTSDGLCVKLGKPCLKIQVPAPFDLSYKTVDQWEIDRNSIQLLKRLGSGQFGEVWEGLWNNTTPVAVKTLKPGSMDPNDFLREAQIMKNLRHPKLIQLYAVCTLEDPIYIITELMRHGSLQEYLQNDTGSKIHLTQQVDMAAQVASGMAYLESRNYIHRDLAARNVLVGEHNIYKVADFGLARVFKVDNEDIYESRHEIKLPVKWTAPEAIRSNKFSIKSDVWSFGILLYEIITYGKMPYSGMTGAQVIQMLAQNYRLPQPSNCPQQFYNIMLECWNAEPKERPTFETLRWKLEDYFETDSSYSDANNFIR

GSG2 (human) = GSG2 (human) (UniProt Q8TF76)
[2] = system: ABL1 (human), P00519 [H396P]
CDK19 (human) = CDK19 (human) (UniProt Q9BWU1)
MAP2K4 (human) = MAP2K4 (human) (UniProt P45985)
EPHA1 (human) = EPHA1 (human) (UniProt P21709)
EPHA1 (human), sequence (P21709 whole entry, looked up): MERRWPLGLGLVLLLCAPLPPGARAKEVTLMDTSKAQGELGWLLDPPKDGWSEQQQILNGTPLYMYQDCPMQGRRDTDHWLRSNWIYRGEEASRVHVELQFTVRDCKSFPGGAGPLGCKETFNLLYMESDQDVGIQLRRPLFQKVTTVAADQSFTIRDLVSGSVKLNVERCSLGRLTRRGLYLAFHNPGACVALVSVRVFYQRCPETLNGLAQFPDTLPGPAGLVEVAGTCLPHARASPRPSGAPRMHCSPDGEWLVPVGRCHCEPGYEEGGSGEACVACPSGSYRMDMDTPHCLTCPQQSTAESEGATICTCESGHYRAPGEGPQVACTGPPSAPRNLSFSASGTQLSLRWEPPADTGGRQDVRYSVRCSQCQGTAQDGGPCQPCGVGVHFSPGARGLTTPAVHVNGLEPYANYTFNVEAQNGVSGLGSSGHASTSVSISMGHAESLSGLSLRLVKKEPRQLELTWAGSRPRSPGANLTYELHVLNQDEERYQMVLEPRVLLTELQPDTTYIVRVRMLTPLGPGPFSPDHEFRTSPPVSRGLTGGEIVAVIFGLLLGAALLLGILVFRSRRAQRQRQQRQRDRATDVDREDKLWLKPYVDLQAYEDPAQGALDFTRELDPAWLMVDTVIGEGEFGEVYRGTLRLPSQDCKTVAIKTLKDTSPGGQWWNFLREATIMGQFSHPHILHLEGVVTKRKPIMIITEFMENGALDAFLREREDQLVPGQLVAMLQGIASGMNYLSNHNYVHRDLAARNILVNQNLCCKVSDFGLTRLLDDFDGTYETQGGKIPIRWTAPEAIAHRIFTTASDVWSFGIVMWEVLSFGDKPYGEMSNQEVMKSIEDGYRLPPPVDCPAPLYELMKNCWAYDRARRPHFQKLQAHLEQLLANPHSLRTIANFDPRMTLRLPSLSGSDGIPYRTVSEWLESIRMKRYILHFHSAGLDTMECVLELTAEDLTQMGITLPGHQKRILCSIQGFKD

RPS6KA5 KD2 (human) = RPS6KA5 KD2 (human) (UniProt O75582)

IKBKB (human), sequence (O14920 whole entry, looked up): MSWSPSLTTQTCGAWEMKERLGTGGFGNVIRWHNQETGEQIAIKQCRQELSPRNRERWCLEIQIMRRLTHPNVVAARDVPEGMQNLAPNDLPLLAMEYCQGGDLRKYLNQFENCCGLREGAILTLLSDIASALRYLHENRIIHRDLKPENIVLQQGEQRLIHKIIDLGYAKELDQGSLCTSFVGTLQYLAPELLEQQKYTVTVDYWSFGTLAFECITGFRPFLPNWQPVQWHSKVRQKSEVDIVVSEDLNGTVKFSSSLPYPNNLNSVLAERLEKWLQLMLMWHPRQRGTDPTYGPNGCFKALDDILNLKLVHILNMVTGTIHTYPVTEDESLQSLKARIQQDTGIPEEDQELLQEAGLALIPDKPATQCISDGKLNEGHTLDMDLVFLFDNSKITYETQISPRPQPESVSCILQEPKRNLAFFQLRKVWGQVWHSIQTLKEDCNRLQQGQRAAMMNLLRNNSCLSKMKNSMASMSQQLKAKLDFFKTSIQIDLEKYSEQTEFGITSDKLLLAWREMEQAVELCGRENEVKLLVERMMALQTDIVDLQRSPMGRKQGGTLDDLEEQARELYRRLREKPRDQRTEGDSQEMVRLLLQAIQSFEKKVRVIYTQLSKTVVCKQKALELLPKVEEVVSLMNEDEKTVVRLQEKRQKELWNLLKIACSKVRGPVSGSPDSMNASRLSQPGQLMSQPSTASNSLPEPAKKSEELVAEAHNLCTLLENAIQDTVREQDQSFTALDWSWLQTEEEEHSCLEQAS
SGK1 (human), sequence (O00141 whole entry, looked up): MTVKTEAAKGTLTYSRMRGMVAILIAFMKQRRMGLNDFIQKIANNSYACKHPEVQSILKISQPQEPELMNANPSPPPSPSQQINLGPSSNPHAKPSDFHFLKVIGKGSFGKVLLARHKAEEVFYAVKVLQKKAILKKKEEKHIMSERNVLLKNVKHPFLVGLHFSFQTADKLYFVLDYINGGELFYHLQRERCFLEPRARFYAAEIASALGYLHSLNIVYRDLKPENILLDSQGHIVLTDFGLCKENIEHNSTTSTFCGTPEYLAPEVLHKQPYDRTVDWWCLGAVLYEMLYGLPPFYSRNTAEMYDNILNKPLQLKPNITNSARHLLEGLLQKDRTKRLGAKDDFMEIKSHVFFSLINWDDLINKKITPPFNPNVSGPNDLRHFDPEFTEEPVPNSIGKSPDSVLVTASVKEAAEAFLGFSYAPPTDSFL
MAP2K7 (human), sequence (O14733 whole entry, looked up): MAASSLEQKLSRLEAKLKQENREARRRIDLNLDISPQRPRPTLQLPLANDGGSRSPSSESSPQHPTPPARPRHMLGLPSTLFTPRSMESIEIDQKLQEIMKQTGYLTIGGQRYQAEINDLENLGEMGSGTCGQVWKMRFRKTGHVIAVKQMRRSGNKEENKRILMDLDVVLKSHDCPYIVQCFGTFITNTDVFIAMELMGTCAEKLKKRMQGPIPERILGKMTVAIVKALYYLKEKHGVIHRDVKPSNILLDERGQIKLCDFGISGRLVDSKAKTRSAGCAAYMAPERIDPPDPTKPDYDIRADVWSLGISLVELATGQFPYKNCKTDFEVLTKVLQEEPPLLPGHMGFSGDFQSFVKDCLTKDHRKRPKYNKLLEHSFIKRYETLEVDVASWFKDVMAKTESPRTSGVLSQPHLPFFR

N#CCNC(=O)c1ccc(-c2ccnc(Nc3ccc(N4CCOCC4)cc3)n2)cc1
kinase still bound, per cent of control (TAOK3 (human)): 100%
kinase still bound, per cent of control (IKBKB (human)): 0.15%
kinase still bound, per cent of control (MAP2K7 (human)): 100%
kinase still bound, per cent of control (STK32B (human)): 93%
kinase still bound, per cent of control (SGK1 (human)): 2.8%
kinase still bound, per cent of control (CASK (human)): 100%
kinase still bound, per cent of control (ROCK1 (human)): 2.9%
kinase still bound, per cent of control (PAK3 (human)): 73%
kinase still bound, per cent of control (WNK3 (human)): 90%
kinase still bound, per cent of control (LIMK2 (human)): 68%
kinase still bound, per cent of control (LATS2 (human)): 74%
kinase still bound, per cent of control (RIPK4 (human)): 100%
kinase still bound, per cent of control (PIP4K2B (human)): 89%
kinase still bound, per cent of control (PRKD3 (human)): 65%
kinase still bound, per cent of control (PAK6 (human)): 100%
kinase still bound, per cent of control (ROCK2 (human)): 0.7%
kinase still bound, per cent of control (PTK6 (human)): 100%
kinase still bound, per cent of control (MARK4 (human)): 42%
kinase still bound, per cent of control (SRPK2 (human)): 30%
kinase still bound, per cent of control (BLK (human)): 100%
kinase still bound, per cent of control (MELK (human)): 100%
kinase still bound, per cent of control (CLK3 (human)): 91%
kinase still bound, per cent of control (CDKL1 (human)): 60%
kinase still bound, per cent of control (PKMYT1 (human)): 100%
kinase still bound, per cent of control (ABL1 (human)): 54%
kinase still bound, per cent of control (BUB1 (human)): 3.5%
kinase still bound, per cent of control (CaMK1 (human)): 59%
kinase still bound, per cent of control (RPS6KA2 KD2 (human)): 71%
kinase still bound, per cent of control (PIK3CG (human)): 2.4%
kinase still bound, per cent of control (MST4 (human)): 83%
kinase still bound, per cent of control (BMPR1B (human)): 85%
kinase still bound, per cent of control [1]: 0.1%
kinase still bound, per cent of control (FRK (human)): 98%
kinase still bound, per cent of control (GSG2 (human)): 67%
kinase still bound, per cent of control [2]: 65%
kinase still bound, per cent of control (CDK19 (human)): 100%
kinase still bound, per cent of control (MAP2K4 (human)): 32%
kinase still bound, per cent of control (EPHA1 (human)): 100%
kinase still bound, per cent of control (RPS6KA5 KD2 (human)): 9.3%
